Patent publication US11078202B2, “β-lactamase inhibitor and use thereof” (priority 2018, dated 2021)
Where a name gives a salt, the structure may show the parent alone.

Experiments:
Assay type in all cases: cell-based
[1] = tested on: Acinetobacter baumannii XNWB 0007; assay: MIC assay of test compounds combined with ceftazidime (8 μg/mL); conditions: ceftazidime 8 μg/mL fixed
Procedure, shortened: (§1)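 Here, growth inhibition was scored visually following CLSI guidelines once plates containing compound, fixed-dose β-lactam and diluted inoculum had stood 16-20 h at 35±2 °C. Cells were taken from TSA colonies, brought to OD600 0.1-0.15 in 0.9% NaCl, then diluted 300-fold in 1.1×CAMHB.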

[2] = tested on: Klebsiella pneumoniae XNWB 0001; assay: as above; conditions: ceftazidime 8 μg/mL fixed
Procedure, shortened: as §1

[3] = tested on: Klebsiella pneumoniae XNWB 0002; assay: as above; conditions: ceftazidime 8 μg/mL fixed
Procedure, shortened: as §1

[4] = tested on: Klebsiella pneumoniae XNWB 0003; assay: as above; conditions: ceftazidime 8 μg/mL fixed
Procedure, shortened: as §1

[5] = tested on: Klebsiella pneumoniae XNWB 0004; assay: as above; conditions: ceftazidime 8 μg/mL fixed
Procedure, shortened: as §1

[6] = tested on: Klebsiella pneumoniae XNWB 0005; assay: as above; conditions: ceftazidime 8 μg/mL fixed
Procedure, shortened: as §1

[7] = tested on: Klebsiella pneumoniae XNWB 0006; assay: as above; conditions: ceftazidime 8 μg/mL fixed
Procedure, shortened: as §1

[8] = tested on: Pseudomonas aeruginosa XNWB 0008; assay: as above; conditions: ceftazidime 8 μg/mL fixed
Procedure, shortened: as §1

[9] = tested on: Acinetobacter baumannii XNWB 0007; assay: MIC assay of test compounds combined with imipenem (4 μg/mL); conditions: imipenem 4 μg/mL fixed
Procedure, shortened: as §1

[10] = tested on: Klebsiella pneumoniae XNWB 0001; assay: as above; conditions: imipenem 4 μg/mL fixed
Procedure, shortened: as §1

[11] = tested on: Klebsiella pneumoniae XNWB 0002; assay: as above; conditions: imipenem 4 μg/mL fixed
Procedure, shortened: as §1

[12] = tested on: Klebsiella pneumoniae XNWB 0003; assay: as above; conditions: imipenem 4 μg/mL fixed
Procedure, shortened: as §1

[13] = tested on: Klebsiella pneumoniae XNWB 0004; assay: as above; conditions: imipenem 4 μg/mL fixed
Procedure, shortened: as §1

[14] = tested on: Klebsiella pneumoniae XNWB 0005; assay: as above; conditions: imipenem 4 μg/mL fixed
Procedure, shortened: as §1

[15] = tested on: Klebsiella pneumoniae XNWB 0006; assay: as above; conditions: imipenem 4 μg/mL fixed
Procedure, shortened: as §1

[16] = tested on: Pseudomonas aeruginosa XNWB 0008; assay: as above; conditions: imipenem 4 μg/mL fixed
Procedure, shortened: as §1

Row | Compound | The minimum concentration of test compounds combined with ceftazidime (8 μg/mL) for bacteriostasis [1] | The minimum concentration of test compounds combined with ceftazidime (8 μg/mL) for bacteriostasis [2] | The minimum concentration of test compounds combined with ceftazidime (8 μg/mL) for bacteriostasis [3] | The minimum concentration of test compounds combined with ceftazidime (8 μg/mL) for bacteriostasis [4] | The minimum concentration of test compounds combined with ceftazidime (8 μg/mL) for bacteriostasis [5] | The minimum concentration of test compounds combined with ceftazidime (8 μg/mL) for bacteriostasis [6] | The minimum concentration of test compounds combined with ceftazidime (8 μg/mL) for bacteriostasis [7] | The minimum concentration of test compounds combined with ceftazidime (8 μg/mL) for bacteriostasis [8] | The minimum concentration of test compounds combined with imipenem (4 μg/mL) for bacteriostasis [9] | The minimum concentration of test compounds combined with imipenem (4 μg/mL) for bacteriostasis [10] | The minimum concentration of test compounds combined with imipenem (4 μg/mL) for bacteriostasis [11] | The minimum concentration of test compounds combined with imipenem (4 μg/mL) for bacteriostasis [12] | The minimum concentration of test compounds combined with imipenem (4 μg/mL) for bacteriostasis [13] | The minimum concentration of test compounds combined with imipenem (4 μg/mL) for bacteriostasis [14] | The minimum concentration of test compounds combined with imipenem (4 μg/mL) for bacteriostasis [15] | The minimum concentration of test compounds combined with imipenem (4 μg/mL) for bacteriostasis [16]
1 | N=C(N)NCCNCCc1cc([C@@H]2CC3(CC3)[C@@H]3CN2C(=O)N3OS(=O)(=O)O)no1 [Example 53, (1R,4S)-4-(5-(2-((2-guanidinoethyl)amino)ethyl)isoxazol-3-yl)-6-oxo-5,7-diazaspiro [bicyclo[3.2.1]octane-2,1′-cyclopropan]-7-yl sulfate] | C (C: 16-128 μg/mL) | A (A: <8 μg/mL) | A (A: <8 μg/mL) | A (A: <8 μg/mL) | B (B: 8-16 μg/mL) | A (A: <8 μg/mL) | A (A: <8 μg/mL) | B (B: 8-16 μg/mL) | C (C: 16-128 μg/mL) | A (A: <8 μg/mL) | A (A: <8 μg/mL) | A (A: <8 μg/mL) | A (A: <8 μg/mL) | A (A: <8 μg/mL) | A (A: <8 μg/mL) | A (A: <8 μg/mL)
2 | N=C(N)NC[C@@H](O)c1nnc([C@@H]2CC3(CC3)[C@@H]3CN2C(=O)N3OS(=O)(=O)O)o1 [Example 11, (1R,4S)-4-(5-((R)-2-guanidyl-1-hydroxyethyl)-1,3,4-oxadiazol-2-yl)-6-oxo-5,7-diazaspiro[bicyclo[3.2.1]octane-2,1′-cyclopropan]-7-yl sulfate] | C (C: 16-128 μg/mL) | A (A: <8 μg/mL) | A (A: <8 μg/mL) | A (A: <8 μg/mL) | A (A: <8 μg/mL) | A (A: <8 μg/mL) | A (A: <8 μg/mL) | C (C: 16-128 μg/mL) | B (B: 8-16 μg/mL) | A (A: <8 μg/mL) | A (A: <8 μg/mL) | A (A: <8 μg/mL) | A (A: <8 μg/mL) | A (A: <8 μg/mL) | A (A: <8 μg/mL) | B (B: 8-16 μg/mL)
3 | NCCCCc1nnc([C@@H]2CC3(CC3)[C@@H]3CN2C(=O)N3OS(=O)(=O)O)o1 [Example 7, (1R,4S)-4-(5-(4-aminobutyl)-1,3,4-oxadiazol-2-yl)-6-oxo-5,7-diazaspiro[bicycle[3.2.1]octane-2,1′-cyclopropan]-7-yl sulfate] | C (C: 16-128 μg/mL) | B (B: 8-16 μg/mL) | A (A: <8 μg/mL) | B (B: 8-16 μg/mL) | B (B: 8-16 μg/mL) | B (B: 8-16 μg/mL) | A (A: <8 μg/mL) | C (C: 16-128 μg/mL) | B (B: 8-16 μg/mL) | A (A: <8 μg/mL) | A (A: <8 μg/mL) | A (A: <8 μg/mL) | A (A: <8 μg/mL) | A (A: <8 μg/mL) | A (A: <8 μg/mL) | B (B: 8-16 μg/mL)
4 | NCc1cc([C@@H]2CC3(CC3)[C@@H]3CN2C(=O)N3OS(=O)(=O)O)no1 [Example 35, (1R,4S)-4-(5-(aminomethyl)-isoxazol-3-yl)-6-oxo-5,7-diazaspiro[bicyclo[3.2.1]octane-2,1′-cyclopropan]-7-yl sulfate] | C (C: 16-128 μg/mL) | A (A: <8 μg/mL) | A (A: <8 μg/mL) | A (A: <8 μg/mL) | A (A: <8 μg/mL) | A (A: <8 μg/mL) | A (A: <8 μg/mL) | C (C: 16-128 μg/mL) | C (C: 16-128 μg/mL) | A (A: <8 μg/mL) | A (A: <8 μg/mL) | A (A: <8 μg/mL) | A (A: <8 μg/mL) | A (A: <8 μg/mL) | A (A: <8 μg/mL) | B (B: 8-16 μg/mL)
